{"source": "patent US9567319B2", "about": "“Compound having higher inhibitory activity on protein kinase G and preparation method thereof” (Jenkem Technology Co., Ltd., (Tianjin), priority 2014, dated 2017)", "test": "Test of water solubility of the compounds", "details": "for Volume of added water: about 0.1 g sample, water added until dissolved; for solubility: water; for water solubility, times higher than that of compound 46: relative to compound 46 (parent compound)", "description": "At room temperature, about 0.1 g of each sample to be tested (solid materials should be ground as powder) was added to a 10 mL cylinder with a ground glass stopper. Water was gradually added. After each addition of 0.5 mL water, the resulting solution was stirred for 10 min for mixing, and was then visually examined for the presence of any undissolved sample. If there still exists undissolved sample or undissolved portions of the sample after 10 mL water was added, the test would be continued in a 100 mL cylinder."}
{"compound": "COCCOCCOCCOCCOCCOCCOCCOc1ccc(OC)c(F)c1C(=O)c1ccc(C(=O)N[C@@H]2CNC[C@H]2NC(=O)c2ccc3cn[nH]c3c2)cc1.Cl", "note": "[JK-M07M, (3R,4R)-3-{4-[2-fluoro-3-methoxy-6-(2,5,8,11,14,17,20-heptaoxadocosan-22-oxy)]benzoyl}benzamido-4-(1H-indazole-6-carboxamido)pyrrolidine hydrochloride]", "values": [{"measurement": "Volume of added water", "setting": "room temperature", "result": 7.5, "unit": "mL"}, {"measurement": "solubility", "setting": "room temperature", "result": 13300, "unit": "µg/mL"}]}
{"compound": "CCCOCCOCCOc1ccc(OC)c(F)c1C(=O)c1ccc(C(=O)N[C@@H]2CNC[C@H]2NC(=O)c2ccc3cn[nH]c3c2)cc1.Cl", "note": "[JK-M02P, (3R,4R)-3-{4-[2-fluoro-3-methoxy-6-(4,7-dioxanonan-9-oxy)]benzoyl}benzamido-4-(1H-indazole-6-carboxamido)pyrrolidine hydrochloride]", "values": [{"measurement": "Volume of added water", "setting": "room temperature", "result": 22.0, "unit": "mL"}, {"measurement": "solubility", "setting": "thermodynamic from solid", "result": 4500, "unit": "µg/mL"}]}
{"compound": "COCCOCCOCCOc1ccc(F)c(F)c1C(=O)c1ccc(C(=O)N[C@@H]2CNC[C@H]2NC(=O)c2ccc3cn[nH]c3c2)cc1.Cl", "note": "[JK-03M, (3R,4R)-3-{4-[2,3-difluoro-6-(2,5,8-trioxadecan-10-oxy)]benzoyl}benzamido-4-(1H-indazole-6-carboxamido)pyrrolidine hydrochloride]", "values": [{"measurement": "Volume of added water", "setting": "room temperature", "result": 16.5, "unit": "mL"}, {"measurement": "water solubility, times higher than that of compound 46", "result": "about 4 times"}, {"measurement": "solubility", "setting": "room temperature", "result": 6100, "unit": "µg/mL"}]}
{"compound": "CCCOCCOCCOc1ccc(F)c(F)c1C(=O)c1ccc(C(=O)N[C@@H]2CNC[C@H]2NC(=O)c2ccc3cn[nH]c3c2)cc1.Cl", "note": "[JK-02P, (3R,4R)-3-{4-[2,3-difluoro-6-(3,6-dioxanonan-1-oxy)]benzoyl}benzamido-4-(1H-indazole-6-carboxamido)pyrrolidine hydrochloride]", "values": [{"measurement": "Volume of added water", "setting": "room temperature", "result": 22.5, "unit": "mL"}, {"measurement": "water solubility, times higher than that of compound 46", "result": "about 3 times"}, {"measurement": "solubility", "setting": "thermodynamic from solid", "result": 4400, "unit": "µg/mL"}]}
{"compound": "COc1ccc(OCCOCCO)c(C(=O)c2ccc(C(=O)N[C@@H]3CNC[C@H]3NC(=O)c3ccc4cn[nH]c4c3)cc2)c1F.Cl", "note": "[JK-M02H, (3R,4R)-3-{4-[2-fluoro-3-methoxy-6-(5-hydroxy-3-oxapentan-1-oxy)]benzoyl}benzamido-4-(1H-indazole-6-carboxamido)pyrrolidine hydrochloride]", "values": [{"measurement": "Volume of added water", "setting": "room temperature", "result": 12.5, "unit": "mL"}, {"measurement": "solubility", "setting": "thermodynamic from solid", "result": 8000, "unit": "µg/mL"}]}
